Results on 1 compound are retold here after publication PMC5410297, “Sepia ink oligopeptide induces apoptosis and growth inhibition in human lung cancer cells” (Oncotarget, 2017).

Data set [1] has as its system A549 cells. The class given is cell-based, human. The procedure: To quantitatively evaluate the corresponding cellular uptakes and average fluorescent intensity of linear SIO or stable SIO in human lung cancer cells, A549 cells were treated with PBS (as blank), FITC, stable SIO and linear SIO for 2 hours and then were analyzed by flow cytometry (Figure 5). […] Almost identical results were obtained from another lung cancer cell line H1299 (Figure 5D–5F). Therefore, the results were consistent with the cell fluorescent imaging analysis, which indicated stable SIO was much more appropriate to penetrate into cells.
Figure 5 Delivery efficiency of stable SIO or linear SIO in A549 or H1299 cells evaluated by flow cytometry (A and D) A549 or H1299 cells were treated with PBS (as blank), FITC (5 μM), linear SIO (5 μM) and stable SIO (5 μM) for 2 hours and the statistical count of cells were gathered by flow cytometry. […] Average fluorescence intensity presents the FITC intensity in the cells. […]
To test the delivery efficiency of stable SIO or linear SIO, A549 cells were cultured in the 6-well plates and were treated with PBS (as blank), FITC, stable FITC-SIO and linear FITC-SIO separately for […]. […] Samples were then analyzed by the FACSCalibur flow cytometer (Becton Dickinson). The cellular uptake and average fluorescent intensity were analyzed using Flowjo software.

In data set [2] the test system is A549 and H1299 cells. The data set can be described thus: Anti-proliferative effect, MTT and CCK-8 assays. The class given is cell-based, human. The following applies: A549 and H1299, MTT and CCK-8, 5 μM, n = 3. The procedure: Cell proliferation and apoptosis are crucial markers of cancer metastasis and invasive properties. To explore whether the stable SIO has much better effect on inhibiting the proliferation of A549 and H1299 cells, MTT and CCK-8 assays (Supplementary Figure 1) were conducted to investigate the anti-proliferative effect in PBS, FITC, stable SIO and linear SIO treated groups. […] It was worth noting that the anti-proliferative effect of SIO was in a time-dependent manner, which was significant at 48 hours (54%), and was peaked at 72 hours (70%).
Figure 6 The strong cell penetration of stable SIO in A549 or H1299 cells inhibited cell proliferation and induced cell apoptosis FITC-Annexin V and propidium iodide (PI) containing apoptosis assay on A549 or H1299 cells treated with PBS (as blank), FITC (5 μM), linear SIO (5 μM) and stable SIO (5 μM) for 72 hours. (A and D) Apoptotic cells stained with Annexin V/PI were measured by flow cytometry. (B and E) The statistic results of cell apoptosis by flow cytometry. […] Percentage cell viability of the treated cells is calculated relative to that of PBS treated cells (with arbitrarily assigned 100% viability). […]
Cell viability was measured using Cell Counting The plates were processed as described above, and the Kit-8 (CCK-8, Sigma, St. Louis, MO, USA) following the OD450 of the supernatant was measured. […]

In the case of `O=C1OC2(c3ccc(O)cc3Oc3cc(O)ccc32)c2ccc(N=C=S)cc21` [FITC], in data set [1], the “delivery (permeability) efficiency: ratio of fluorescent cell counts to total cell counts” value stood at 5.82 ± 0.95%. The “inhibition of cell growth (in words)” value in data set [2] was “no obvious inhibition”.
